# Results from paper PMC4604124, “In Vitro Characterization of the Pharmacological Properties of the Anti-Cancer Chelator, Bp4eT, and Its Phase I Metabolites” (PLoS ONE, 2015).
# Test system: MCF-7 cells
# Test: Epifluorescence microscopy, triple staining MDC / annexin V-FITC / propidium iodide
# Type: cell-based, human
# Conditions: Bp4eT 10 or 100 nM 72 h, rapamycin 1 nM 30 min
# Experimental: Markers used to assess autophagy/apoptosis/necrosis in MCF-7 cells and changes of lysosomal and mitochondrial morphology were observed using an Eclipse Ti inverted epifluorescence microscope (Nikon, Tokyo, Japan), that was equipped with a cooled digital camera Zyla 5.5 sCMOS (Andor Technology, Belfast, UK), and NIS-Elements C 4.1 software (Laboratory Imaging, Prague, Czech Republic). The MCF-7 cells were seeded in 6-well plates with cover slips on the bottom at a density of 150,000 cells/well and incubated as described above in the presence or absence of 10 or 100 nM Bp4eT.
# To assess the mechanism of cellular death after incubation with Bp4eT, triple staining with monodansyl cadaverine (MDC; 50 μM; λex = 390 nm; λem = 455 nm; Sigma-Aldrich), annexin V-FITC (5 μL/mL; λex = 495 nm; λem = 519 nm; Invitrogen, Carlsbad, CA, USA), and propidium iodide (5 μg/mL; λex = 560 nm; λem = 630 nm) was used. MDC is a marker of autophagosomes and lysosomes and results in blue fluorescence. As a positive control for autophagy, MCF-7 cells were incubated with 1 nM rapamycin (Sigma-Aldrich) for 30 min/37°C, which is an established inducer of autophagy. Annexin V has high affinity to phosphatidylserine, which is translocated to the surface of both early- and late-stage apoptotic cells. […]
compound,measurement,value
"CO[C@H]1C[C@@H]2CC[C@@H](C)[C@@](O)(O2)C(=O)C(=O)N2CCCC[C@H]2C(=O)O[C@H]([C@H](C)C[C@@H]2CC[C@@H](O)[C@H](OC)C2)CC(=O)[C@H](C)/C=C(\C)[C@@H](O)[C@@H](OC)C(=O)[C@H](C)C[C@H](C)/C=C/C=C/C=C/1C [rapamycin, reference compound]","Staining for autophagy/apoptosis/necrosis (MDC, annexin V-FITC, propidium iodide)","enlarged cells with ample granular, cytoplasmic MDC staining"
